Patent US20220332700A1, “NOVEL APOPTOSIS SIGNAL-REGULATING KINASE 1 INHIBITORS” (MANKIND PHARMA LTD, priority 2019, published 2022)
One block for each molecule: values may come before it.

Experiments:
recombinant ASK1 = biological target: T1, recombinant ASK1 (Homo sapiens, UniProt Q99683); test: ASK1 Biochemical Assay (HTRF KinEASE-STK S3); conditions: ATP 100 μM; read-out: Biochemical Assay IC50
T1 construct: purchased Carna Biosciences
Outline: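 Recombinant ASK1 (5 ng) preincubated with compound 1 h at 23 °C in MOPS pH 7 buffer with Mg-acetate, DTT, NP40, glycerol, BSA and 1% DMSO. Inhibition calculated against vehicle after substrate-blank subtraction.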

Human ASK1 = biological target: T2, Human ASK1 (Homo sapiens, UniProt Q99683); test: ASK1 Cell Based Assay (phospho p38 read out in hASK1 transfected HEK293T-AP1 cells); conditions: HEK293T-AP1 cells, 1 mM hydrogen peroxide, phospho p38; read-out: Cell Based Assay IC50
T2 construct: expressed in transfected cells; host or cells: HEK293T-AP1
T2 sequence (Q99683 1-1374): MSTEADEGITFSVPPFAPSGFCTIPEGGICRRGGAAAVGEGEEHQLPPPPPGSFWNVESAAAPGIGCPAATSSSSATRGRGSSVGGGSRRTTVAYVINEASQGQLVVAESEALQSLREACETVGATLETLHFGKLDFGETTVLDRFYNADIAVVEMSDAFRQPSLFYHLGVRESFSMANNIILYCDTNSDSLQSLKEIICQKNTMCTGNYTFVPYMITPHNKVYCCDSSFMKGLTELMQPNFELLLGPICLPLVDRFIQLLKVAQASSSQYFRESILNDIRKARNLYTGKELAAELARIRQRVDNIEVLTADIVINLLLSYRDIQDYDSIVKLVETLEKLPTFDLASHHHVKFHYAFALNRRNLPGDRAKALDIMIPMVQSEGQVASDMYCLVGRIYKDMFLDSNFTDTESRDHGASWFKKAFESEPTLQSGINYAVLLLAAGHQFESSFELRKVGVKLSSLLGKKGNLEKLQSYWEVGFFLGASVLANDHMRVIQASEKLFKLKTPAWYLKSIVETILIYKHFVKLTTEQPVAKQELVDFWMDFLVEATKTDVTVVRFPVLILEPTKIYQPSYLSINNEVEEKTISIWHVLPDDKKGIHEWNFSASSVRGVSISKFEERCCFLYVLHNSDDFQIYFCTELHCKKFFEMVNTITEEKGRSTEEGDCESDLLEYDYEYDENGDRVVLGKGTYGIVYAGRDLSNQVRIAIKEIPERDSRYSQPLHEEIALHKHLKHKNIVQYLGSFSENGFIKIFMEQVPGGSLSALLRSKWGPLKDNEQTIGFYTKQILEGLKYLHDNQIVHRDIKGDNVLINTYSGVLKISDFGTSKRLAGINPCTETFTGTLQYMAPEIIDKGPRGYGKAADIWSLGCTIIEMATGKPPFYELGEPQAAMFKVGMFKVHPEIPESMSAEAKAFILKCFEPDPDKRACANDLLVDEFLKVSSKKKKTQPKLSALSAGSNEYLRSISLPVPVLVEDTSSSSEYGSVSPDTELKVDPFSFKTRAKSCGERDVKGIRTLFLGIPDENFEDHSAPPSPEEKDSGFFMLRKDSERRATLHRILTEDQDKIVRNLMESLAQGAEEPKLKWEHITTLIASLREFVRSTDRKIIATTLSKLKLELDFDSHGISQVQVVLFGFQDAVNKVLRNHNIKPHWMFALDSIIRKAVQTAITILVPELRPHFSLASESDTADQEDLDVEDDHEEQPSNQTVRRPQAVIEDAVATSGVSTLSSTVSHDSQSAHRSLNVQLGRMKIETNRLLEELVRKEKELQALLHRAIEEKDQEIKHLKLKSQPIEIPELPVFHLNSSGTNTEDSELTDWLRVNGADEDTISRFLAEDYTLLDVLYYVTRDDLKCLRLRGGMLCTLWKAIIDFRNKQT
Procedure: HEK293T-AP1 cells were seeded at a density of 20,000 cells per well in a poly-d-lysine coated 96 well microplate. Next day, cells were transfected with hASK1-pcDNA3.1 vector using lipofectamine 3000. After 24 hours of transfection, cells were treated with compounds for 24 hours in assay medium. DMSO was used as a vehicle control with a final DMSO concentration of 0.2%. On 4th day, medium was discarded and cells were activated with 1 mM hydrogen peroxide for 1 hour in the presence of compounds. Cells were lysed for 1 hour with 1× lysis buffer on a shaker at 100 rpm. Sixteen microliters of lysate was collected into a 384 well small volume plate. Phospho p38 levels in the lysate was detected by using CisbioPhospho-p38 MAPK (Thr180/Tyr182) #64P38PEG.Four microliters of phospho p38 antibodies labelled with europium cryptate and d2 acceptor, were added to the lysate and incubated overnight. TR-FRET was measured at an excitation of 335 nm and emission was measured at 615 nm and 665 nm in BMG FLUOstar multimode reader.
Compounds were assessed for ASK1 inhibition based on phospho p38 read out. […] Background control values were susbtracted from vehicle control as well as from compound treated wells.

Compound: CC(C)n1cnnc1-c1cccc(N2CCN(c3ccc(S(=O)(=O)N4CCOCC4)cc3)C2=O)n1 [Example 1073, 1-(6-(4-isopropyl-4H-1,2,4-triazol-3-yl)pyridin-2-yl)-3-(4-(morpholinosulfonyl)phenyl)imidazolidin-2-one]
- IC50 (recombinant ASK1): < 100 nM
- IC50 (Human ASK1): > 100 nM

Compound: CC(C)n1cnnc1-c1cccc(N2CCN(c3ccc(N4CCOCC4)c(F)c3)C2=O)n1 [Example 1075, 1-(3-fluoro-4-morpholinophenyl)-3-(6-(4-isopropyl-4H-1,2,4-triazol-3-yl)pyridin-2-yl)imidazolidin-2-one]
- IC50 (recombinant ASK1): < 100 nM
- IC50 (Human ASK1): > 1000 nM

Compound: CC1CN(c2ccc(N3CCN(c4cccc(-c5nncn5C(C)C)n4)C3=O)cc2)C(=O)CO1 (stereo not drawn) [Example 1076, 4-(4-(3-(6-(4-isopropyl-4H-1,2,4-triazol-3-yl)pyridin-2-yl)-2-oxoimidazolidin-1-yl)phenyl)-6-methylmorpholin-3-one]
- IC50 (recombinant ASK1): < 100 nM
- IC50 (Human ASK1): > 1000 nM

Compound: CC(C)n1cnnc1-c1cccc(N2CCN(c3ccc(C(=O)N4CCOCC4)cc3)C2=O)n1 [Example 1077, 1-(6-(4-isopropyl-4H-1,2,4-triazol-3-yl)pyridin-2-yl)-3-(4-(morpholine-4-carbonyl)phenyl)imidazolidin-2-one]
- IC50 (recombinant ASK1): < 100 nM
- IC50 (Human ASK1): > 100 nM

Compound: CC(C)n1cnnc1-c1cccc(N2CCN(c3ccc(CN4CCOCC4)cc3)C2=O)n1 [Example 1080, 1-(6-(4-isopropyl-4H-1,2,4-triazol-3-yl)pyridin-2-yl)-3-(4-(morpholinomethyl)phenyl)imidazolidin-2-one]
- IC50 (recombinant ASK1): < 100 nM
- IC50 (Human ASK1): > 1000 nM

Compound: CC(C)n1cnnc1-c1cccc(N2CCN(c3ccc(NC4CCOCC4)cc3)C2=O)n1 [Example 1081, 1-(6-(4-isopropyl-4H-1,2,4-triazol-3-yl)pyridin-2-yl)-3-(4-(tetrahydro-2H-pyran-4-ylamino)phenyl)imidazolidin-2-one]
- IC50 (recombinant ASK1): < 50 nM
- IC50 (Human ASK1): > 100 nM

Compound: CC(C)n1cnnc1-c1cccc(N2CCN(c3ccc(C(O)C(F)(F)F)cc3)C2=O)n1 (stereo not drawn) [Example 1083, 1-(4-(2,2,2-trifluoro-1-hydroxyethyl)phenyl)-3-(6-(4-isopropyl-4H-1,2,4-triazol-3-yl)pyridin-2-yl)imidazolidin-2-one]
- IC50 (recombinant ASK1): < 100 nM
- IC50 (Human ASK1): > 1000 nM

Compound: CC(C)n1cnnc1-c1cccc(N2CCN(c3ccc(C4CCN(S(C)(=O)=O)CC4)cc3)C2=O)n1 [Example 1084, 1-(6-(4-isopropyl-4H-1,2,4-triazol-3-yl)pyridin-2-yl)-3-(4-(1-(methylsulfonyl)piperidin-4-yl)phenyl)imidazolidin-2-one]
- IC50 (recombinant ASK1): < 100 nM
- IC50 (Human ASK1): > 1000 nM

Compound: CC(C)n1cnnc1-c1cccc(N2CCN(c3ccc(N4[C@H](C)COC[C@@H]4C)cc3)C2=O)n1 [Example 1085, 1-(6-(4-isopropyl-4H-1,2,4-triazol-3-yl)pyridin-2-yl)-3-(4-((3R,5S)-3,5-dimethylmorpholino)phenyl)imidazolidin-2-one]
- IC50 (recombinant ASK1): < 100 nM
- IC50 (Human ASK1): > 100 nM

Compound: CC(C)n1cnnc1-c1cccc(N2CCN(c3ccc(C(=O)N4CC(C#N)C4)cc3)C2=O)n1 [Example 1095, 1-(4-(3-(6-(4-isopropyl-4H-1,2,4-triazol-3-yl)pyridin-2-yl)-2-oxoimidazolidin-1-yl)benzoyl)azetidine-3-carbonitrile]
- IC50 (recombinant ASK1): < 100 nM
- IC50 (Human ASK1): > 1000 nM

Compound: CC(C)n1cnnc1-c1cccc(N2CCN(c3ccc(C(C#N)N4CCOCC4)cc3)C2=O)n1 (stereo not drawn) [Example 1098, 2-(4-(3-(6-(4-isopropyl-4H-1,2,4-triazol-3-yl)pyridin-2-yl)-2-oxoimidazolidin-1-yl)phenyl)-2-morpholinoacetonitrile]
- IC50 (recombinant ASK1): < 100 nM
- IC50 (Human ASK1): > 1000 nM

The remaining lines, values ahead:

- IC50 (recombinant ASK1): < 100 nM
- IC50 (Human ASK1): > 100 nM
Compound: CC(C)n1cnnc1-c1cccc(N2CCN(c3ccc(N4CC5(COC5)C4)cc3)C2=O)n1 [Example 1074, 1-(4-(2-oxa-6-azaspiro[3.3]heptan-6-yl)phenyl)-3-(6-(4-isopropyl-4H-1,2,4-triazol-3-yl)pyridin-2-yl)imidazolidin-2-one]

- IC50 (recombinant ASK1): < 100 nM
- IC50 (Human ASK1): > 100 nM
Compound: CC1CN(c2ccc(N3CCN(c4cccc(-c5nncn5C(C)C)n4)C3=O)cc2)CCO1 (stereo not drawn) [Example 1078, 1-(6-(4-isopropyl-4H-1,2,4-triazol-3-yl)pyridin-2-yl)-3-(4-(2-methylmorpholino)phenyl)imidazolidin-2-one]

- IC50 (recombinant ASK1): < 100 nM
- IC50 (Human ASK1): > 100 nM
Compound: CC(C)n1cnnc1-c1cccc(N2CCN(c3ccc(N4CCC(C#N)CC4)cc3)C2=O)n1 [Example 1087, 1-(4-(3-(6-(4-isopropyl-4H-1,2,4-triazol-3-yl)pyridin-2-yl)-2-oxoimidazolidin-1-yl)phenyl)piperidine-4-carbonitrile]

- IC50 (recombinant ASK1): < 100 nM
- IC50 (Human ASK1): > 1000 nM
Compound: CC(C)NC1CN(c2ccc(N3CCN(c4cccc(-c5nncn5C(C)C)n4)C3=O)cc2)C1 [Example 1088, 1-(6-(4-isopropyl-4H-1,2,4-triazol-3-yl)pyridin-2-yl)-3-(4-(3-(isopropylamino)azetidin-1-yl)phenyl)imidazolidin-2-one]

- IC50 (recombinant ASK1): < 100 nM
- IC50 (Human ASK1): > 1000 nM
Compound: CC(C)n1cnnc1-c1cccc(N2CCN(c3ccc(N4CC(O)C4)cc3)C2=O)n1 [Example 1090, 1-(4-(3-hydroxyazetidin-1-yl)phenyl)-3-(6-(4-isopropyl-4H-1,2,4-triazol-3-yl)pyridin-2-yl)imidazolidin-2-one]

- IC50 (recombinant ASK1): < 100 nM
- IC50 (Human ASK1): > 1000 nM
Compound: CC(C)n1cnnc1-c1cccc(N2CCN(c3ccc(N4CCC(C#N)C4)cc3)C2=O)n1 (stereo not drawn) [Example 1091, 1-(4-(3-(6-(4-isopropyl-4H-1,2,4-triazol-3-yl)pyridin-2-yl)-2-oxoimidazolidin-1-yl)phenyl)pyrrolidine-3-carbonitrile]

- IC50 (recombinant ASK1): < 100 nM
- IC50 (Human ASK1): > 1000 nM
Compound: CC(C)n1cnnc1-c1cccc(N2CCN(c3ccc(N4CCN(C)CC4)cc3)C2=O)n1 [Example 1092, 1-(6-(4-isopropyl-4H-1,2,4-triazol-3-yl)pyridin-2-yl)-3-(4-(4-methylpiperazin-1-yl)phenyl)imidazolidin-2-one]

- IC50 (recombinant ASK1): < 100 nM
- IC50 (Human ASK1): > 100 nM
Compound: CC(C)n1cnnc1-c1cccc(N2CCN(c3ccc(N4CC(C(N)=O)C4)cc3)C2=O)n1 [Example 1093, 1-(4-(3-(6-(4-isopropyl-4H-1,2,4-triazol-3-yl)pyridin-2-yl)-2-oxoimidazolidin-1-yl)phenyl)azetidine-3-carboxamide]

- IC50 (recombinant ASK1): < 100 nM
- IC50 (Human ASK1): > 1000 nM
Compound: CC(C)n1cnnc1-c1cccc(N2CCN(c3ccc(N4CC(NC5CC5)C4)cc3)C2=O)n1 [Example 1094, 1-(4-(3-(cyclopropylamino)azetidin-1-yl)phenyl)-3-(6-(4-isopropyl-4H-1,2,4-triazol-3-yl)pyridin-2-yl)imidazolidin-2-one]

- IC50 (recombinant ASK1): < 100 nM
- IC50 (Human ASK1): > 100 nM
Compound: CC(C)n1cnnc1-c1cccc(N2CCN(c3ccc(N4CC(F)C4)cc3)C2=O)n1 [Example 1096, 1-(4-(3-fluoroazetidin-1-yl)phenyl)-3-(6-(4-isopropyl-4H-1,2,4-triazol-3-yl)pyridin-2-yl)imidazolidin-2-one]
